Laboratory results from patent publication US20260042764A1, “COMPOSITIONS AND METHODS FOR INHIBITION OF KRAS” (TheRas, Inc., priority 2022, published 2026).
pIC50: −log10 of the molar value.

Columns and labels:
[1] = target: T1, Avi-KRAS WT (1-169) GppNHp/RAF1 RBD-3xFLAG (52-151) (Homo sapiens, UniProt P01116); experiment: Raf1-KRAS WT-GppNHP disruption HTRF assay (Biological Example 1); assay type: binding
T1 construct: Avi-KRAS WT (1-169)
How it was run: (§1)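 Protein mix, 1 h RT, 700 rpm; reagent mix, 1 h RT, 700 rpm; HTRF read. Buffer Tris pH 7.5/NaCl/MgCl2/BSA/Tween, 10% DMSO. Output % activity, DMSO = 100%.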

GP2d cells (KRAS G12D) = experiment: Cell-based pERK HTRF assay in GP2d cell (Biological Example 2); details: GP2d, GP2d (KRAS G12D) cells, pERK HTRF
How it was run: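 HTRF read-out of pERK (excitation 320 nm, emission 615 nm) after lysates sat 4–24 h at room temperature with Eu cryptate and d2 antibodies.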

SW620 cells (KRAS G12V) = experiment: Cell-based pERK HTRF assay in SW620 cell (Biological Example 4); details: Homo sapiens, SW-620, SW620 (KRAS G12V) cells, pERK HTRF
How it was run: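 SW620 (KRAS G12V) cells seeded at 3×10^4/well in RPMI, 10% FBS, then treated next day for 4 h with a 9-point half-log series from 1 μM top (0.25% DMSO). Lysates analyzed for pERK by HTRF (Eu cryptate/d2 antibodies, 4–24 h at room temperature), excitation 320 nm, emission 615 nm.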

[2] = target: T2, Avi-KRAS G12D (1-169) GppNHp/RAF1 RBD-3xFLAG (52-151) (Homo sapiens, UniProt P01116, G12D); experiment: Raf1-KRAS G12D-GppNHP disruption HTRF assay (Biological Example 1); assay type: binding
T2 construct: Avi-KRAS G12D (1-169)
T2 sequence (P01116 1-169 isoform P01116-2 G12D): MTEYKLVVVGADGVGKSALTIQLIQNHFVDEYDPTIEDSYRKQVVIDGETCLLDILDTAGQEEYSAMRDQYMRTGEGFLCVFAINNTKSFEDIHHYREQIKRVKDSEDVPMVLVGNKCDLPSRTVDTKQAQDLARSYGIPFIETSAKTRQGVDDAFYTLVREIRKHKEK
How it was run: as §1

[3] = target: T3, Avi-KRAS G12V (1-169) GppNHp/RAF1 RBD-3xFLAG (52-151) (Homo sapiens, UniProt P01116, G12V); experiment: Raf1-KRAS G12V-GppNHP disruption HTRF assay (Biological Example 1); assay type: binding
T3 construct: Avi-KRAS G12V (1-169)
T3 sequence (P01116 1-169 isoform P01116-2 G12V): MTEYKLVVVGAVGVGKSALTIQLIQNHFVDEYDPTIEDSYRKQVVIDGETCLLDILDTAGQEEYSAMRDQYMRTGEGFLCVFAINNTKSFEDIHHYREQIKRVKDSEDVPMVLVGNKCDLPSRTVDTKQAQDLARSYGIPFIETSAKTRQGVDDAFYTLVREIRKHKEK
How it was run: as §1

[4] = target: T4, Avi-KRAS G12R (1-169) GppNHp/RAF1 RBD-3xFLAG (52-151) (Homo sapiens, UniProt P01116, G12R); experiment: Raf1-KRAS G12R-GppNHP disruption HTRF assay (Biological Example 1); assay type: binding
T4 construct: Avi-KRAS G12R (1-169)
T4 sequence (P01116 1-169 isoform P01116-2 G12R): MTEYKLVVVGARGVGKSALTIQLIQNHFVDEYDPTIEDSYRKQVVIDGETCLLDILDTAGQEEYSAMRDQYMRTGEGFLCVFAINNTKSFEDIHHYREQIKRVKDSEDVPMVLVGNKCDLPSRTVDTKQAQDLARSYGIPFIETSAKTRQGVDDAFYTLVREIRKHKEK
How it was run: as §1

[5] = KRAS WT, GppNHp-loaded, class symbols
[6] = KRAS G12D, GppNHp-loaded, class symbols
[7] = KRAS G12V, GppNHp-loaded, class symbols
[8] = KRAS G12R, GppNHp-loaded, class symbols
[9] = KRAS WT, GppNHp-loaded, Table 11
[10] = KRAS G12D, GppNHp-loaded, Table 11
[11] = KRAS G12V, GppNHp-loaded, Table 11
[12] = KRAS G12R, GppNHp-loaded, Table 11

T1 sequence (P01116 1-169 isoform P01116-2): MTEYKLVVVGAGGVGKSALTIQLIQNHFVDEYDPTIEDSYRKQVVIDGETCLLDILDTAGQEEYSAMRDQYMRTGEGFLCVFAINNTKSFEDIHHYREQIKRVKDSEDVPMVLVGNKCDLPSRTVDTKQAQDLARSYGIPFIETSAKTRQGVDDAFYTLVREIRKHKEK

Row | pIC50 [1, 5] | pIC50 (GP2d cells (KRAS G12D); class symbols) | pIC50 (SW620 cells (KRAS G12V); class symbols) | pIC50 [2, 6] | pIC50 [3, 7] | pIC50 [4, 8] | pIC50 [1, 9] | pIC50 (GP2d cells (KRAS G12D)) | pIC50 (SW620 cells (KRAS G12V)) | pIC50 [2, 10] | pIC50 [3, 11] | pIC50 [4, 12] | pIC50 ([1]; KRAS WT-GppNHp/RAF1 RBD HTRF) | pIC50 ([2]; KRAS G12D-GppNHp/RAF1 RBD HTRF) | pIC50 ([3]; KRAS G12V-GppNHp/RAF1 RBD HTRF) | pIC50 ([4]; KRAS G12R-GppNHp/RAF1 RBD HTRF) | Compound
1 | > 7.00 | > 7.00 | > 7.00 | > 7.00 | 6.00 to 7.00 | > 7.00 |  |  |  |  |  |  |  |  |  |  | CC[C@H](C)C(=O)N1CC[C@H](N(CC)c2nc(OC[C@@]34CCCN3C[C@H](F)C4)nc3c(F)c(-c4ccc(F)c5sc(N)c(C#N)c45)c(C(F)(F)F)cc23)C1 (atropisomer, axis not shown) [Compound 576]
2 |  |  |  |  |  |  | 6.00 to 7.00 | > 7.00 | 6.00 to 7.00 | 6.00 to 7.00 | 6.00 to 7.00 | 5.00 to 6.00 |  |  |  |  | CN(C)C(=O)CN(C)c1nc(OC[C@@]23CCCN2C[C@H](F)C3)nc2c(F)c(-c3ccc(F)c4sc(N)c(C#N)c34)c(C(F)(F)F)cc12 [Compound 208]
3 |  |  |  |  |  |  | 6.00 to 7.00 | 6.00 to 7.00 | 6.00 to 7.00 | 6.00 to 7.00 | 5.00 to 6.00 | 5.00 to 6.00 |  |  |  |  | CS(=O)(=O)C1CN(c2nc(OC[C@@]34CCCN3C[C@H](F)C4)nc3c(F)c(-c4ccc(F)c5sc(N)c(C#N)c45)c(C(F)(F)F)cc23)C1 [Compound 223]
4 | > 7.00 | > 7.00 | > 7.00 | > 7.00 | > 7.00 | > 7.00 |  |  |  |  |  |  |  |  |  |  | CCN(C)C(=O)N1CC[C@H](N(CC)c2nc(OC[C@@]34CCCN3C[C@H](F)C4)nc3c(F)c(-c4ccc(F)c5sc(N)c(C#N)c45)c(C(F)(F)F)cc23)C1 (atropisomer, axis not shown) [Compound 582]
5 |  |  |  |  |  |  |  | > 7.00 | > 7.00 |  |  |  | 6.00 to 7.00 | 6.00 to 7.00 | 6.00 to 7.00 | 6.00 to 7.00 | CN1C[C@H](N(C)c2nc(OC[C@@]34CCCN3C[C@H](F)C4)nc3c(F)c(-c4ccc(F)c5sc(N)c(C#N)c45)c(C(F)(F)F)cc23)CC1=O [Compound 285]
6 | 6.00 to 7.00 | 6.00 to 7.00 | 6.00 to 7.00 | 5.00 to 6.00 | 5.00 to 6.00 | 5.00 to 6.00 |  |  |  |  |  |  |  |  |  |  | CCN(c1nc(OC[C@@]23CCCN2C[C@H](F)C3)nc2c(F)c(-c3ccc(F)c4sc(N)c(C#N)c34)c(C(F)(F)F)cc12)[C@H]1CCN(C(=O)OC)[C@H]1C (atropisomer, axis not shown) [Compound 799]
7 |  |  |  |  |  |  |  | > 7.00 | > 7.00 |  |  |  | < 5.00 | 5.00 to 6.00 | < 5.00 | < 5.00 | N#Cc1c(N)sc2c(F)ccc(-c3c(C(F)(F)F)cc4c(N5CCn6nc(C7CC7)cc6C5)nc(OC[C@@]56CCCN5C[C@H](F)C6)nc4c3F)c12 [Compound 483]
8 | > 7.00 | > 7.00 | > 7.00 | > 7.00 | > 7.00 | > 7.00 |  |  |  |  |  |  |  |  |  |  | C=C(F)C(=O)N1CC[C@H](N(CC)c2nc(OC[C@@]34CCCN3C[C@H](F)C4)nc3c(F)c(-c4ccc(F)c5sc(N)c(C#N)c45)c(C(F)(F)F)cc23)C1 (atropisomer, axis not shown) [Compound 676]
9 |  |  |  |  |  |  |  | > 7.00 | > 7.00 |  |  |  | 6.00 to 7.00 | 6.00 to 7.00 | 6.00 to 7.00 | 6.00 to 7.00 | C[C@@H]1[C@H](N(C)c2nc(OC[C@@]34CCCN3C[C@H](F)C4)nc3c(F)c(-c4ccc(F)c5sc(N)c(C#N)c45)c(C(F)(F)F)cc23)CCN1C(=O)N(C)C [Compound 409]
10 | 6.00 to 7.00 | > 7.00 | > 7.00 | > 7.00 | 6.00 to 7.00 | 6.00 to 7.00 |  |  |  |  |  |  |  |  |  |  | COC1CN(C(=O)N2CC[C@H](N(c3nc(OC[C@@]45CCCN4C[C@H](F)C5)nc4c(F)c(-c5ccc(F)c6sc(N)c(C#N)c56)c(C(F)(F)F)cc34)C3CC3)C2)C1 (atropisomer, axis not shown) [Compound 801]

Row | Compound | pIC50 [1, 5] | pIC50 (GP2d cells (KRAS G12D); class symbols) | pIC50 (SW620 cells (KRAS G12V); class symbols) | pIC50 [2, 6] | pIC50 [3, 7] | pIC50 [4, 8] | pIC50 [1, 9] | pIC50 (GP2d cells (KRAS G12D)) | pIC50 (SW620 cells (KRAS G12V)) | pIC50 [2, 10] | pIC50 [3, 11] | pIC50 [4, 12] | pIC50 ([1]; KRAS WT-GppNHp/RAF1 RBD HTRF) | pIC50 ([2]; KRAS G12D-GppNHp/RAF1 RBD HTRF) | pIC50 ([3]; KRAS G12V-GppNHp/RAF1 RBD HTRF) | pIC50 ([4]; KRAS G12R-GppNHp/RAF1 RBD HTRF)
11 | N#Cc1c(N)sc2c(F)ccc(-c3c(C(F)(F)F)cc4c(N5CC6CC(C5)O6)nc(OC[C@]56C[C@@H](F)CN5CC5(CC5)C6)nc4c3F)c12 [Compound 594] | 5.00 to 6.00 | > 7.00 | > 7.00 | 5.00 to 6.00 | 5.00 to 6.00 | 5.00 to 6.00 |  |  |  |  |  |  |  |  |  | 
